The values below come from article PMC9024893, “1,2,4-Trioxolane and 1,2,4,5-Tetraoxane Endoperoxides against Old-World Leishmania Parasites: In Vitro Activity and Mode of Action” (Pharmaceuticals, 2022).

Data set [1] can be described thus: Cytotoxicity assay (MTT), PMA-differentiated THP-1 cell line. Type of data set: cell-based. To be noted: human. Here is the method: (§1) Adherent BALB/c mouse macrophage cell line J774A.1 (ATCC® TIB 67™) and suspension human acute monocytic leukemic cell line THP-1 (ATCC® TIB-202™) were purchased from DSMZ, Germany were cultured and maintained in DMEM medium (Gibco) and RPMI 1640 (Sigma), respectively, supplemented with 10% FBS, 1% penicillin-streptomycin (Sigma) and L-glutamine 200 mM (Sigma), at 37 °C, 5% CO2.
(§2) Cell lines J774A.1 and THP-1 were used to estimate CC50 of the peroxides. Cells were plated in 96-well flat bottom culture plates (VWR) at 5 × 10^5 cells/mL. The monocytic cell line THP-1 was differentiated in RPMI medium with phorbol myristate acetate (PMA) (25 ng/mL; Sigma) for 24 h, followed by a washing step with RPMI medium. Six serial concentrations of the compounds (Table 3) were added in four replicates and the plates were incubated at 37 °C ± 1 °C, 5% CO2 for 48 h. An untreated control (cells in DMEM or RPMI medium plus 0.5% DMSO as vehicle) and blank (medium alone) were plated out in quadruplicate. After the incubation period, 20 µL/well of MTT [3-(4,5-dimethylthiazol-2-yl)-2,5-diphenyltetrazolium bromide] was added to a final concentration of 5 µg/mL in 1× phosphate-buffered saline (PBS, Merck), with an additional 4 h incubation at 36 °C, as previously described. The formazan salts were resuspended in 2-propanol (Merck) and the cell viability was determined by measuring absorbance with a Synergy ™HTX Multi Mode Microplate Reader at 595 nm (Dynex Technologies). The CC50 values were calculated fitting the data as a non-linear regression with variable slope using a dose-response inhibitory model, in the GraphPad Prism V 8.0 program. Each compound was tested in three independent assays.

The nature of data set [2]: Cytotoxicity assay (MTT), J774A.1 cell line. To be noted: mouse. In kind it is cell-based. Here is the method: as §1, §2
The test system of data set [3] is L. infantum IMT151 promastigotes. Description: Promastigotes susceptibility assay (MTT), L. infantum. In kind it is cell-based. To be noted: Leishmania infantum, read-out: IC50 ± SD, L. infantum promastigotes. Here is the method:
(§3) Promastigote forms of strains of L. infantum (MHOM/PT/1988/IMT151) and L. donovani (MHOM/BD/2006/BD14) were cultured at 24 °C ± 1 °C in M199 medium (Sigma) supplemented with 20% foetal bovine serum (FBS, Sigma) and 1% penicillin-streptomycin (Sigma). L. infantum strain belongs to IHMT, Portugal cryobank collection and the L. donovani strain was kindly provided by Dr. Katrin Kuhls, Technical University of Applied Sciences Wildau, Germany. Promastigotes used for the experiments had 7 to 12 in vitro passages in culture after isolation from mice, in order to keep virulence, and were used when the stationary phase of growth was reached (day 5 to 6), corresponding to the highest promastigotes density.
(§4) For the determination of the antileishmanial activity and IC50, promastigotes of L. infantum and L. donovani were plated in 96-well flat bottom culture plates at a concentration of 5 × 10^6 parasites/mL and incubated with six serial concentrations of each compound (Table 3), in four replicates, including the control drugs, amphotericin B, miltefosine and pentamidine. One untreated control (parasites with M199 medium plus 0.5% DMSO as vehicle solution) and one blank (M199 medium alone) were also plated out in quadruplicate. After 48 h incubation at 24 °C ± 1 °C, the inhibitory activity of the compounds was evaluated using the MTT, as previously described, with an additional 4 h incubation at 36 °C. Results were expressed in terms of percentage of parasite viability relative to nontreated control and IC50 was calculated fitting the data as a non-linear regression with variable slope using a dose-response inhibitory model, in the GraphPad Prism V 8.0 program. Each compound was tested in three independent assays. […]

Data set [4] has as its system L. donovani BD14 promastigotes. Description: Promastigotes susceptibility assay (MTT), L. donovani. Type of data set: cell-based. The settings on record: Leishmania donovani, read-out: IC50 ± SD, L. donovani promastigotes. Here is the method:
as §3, §4

The test system of data set [5] is L. donovani BD14 intracellular amastigotes. Description: Intracellular amastigotes assay in J774A.1 macrophages, L. donovani. Type of data set: cell-based. To be noted: Leishmania donovani, read-out: IC50 ± SD, L. donovani intracellular amastigotes. Here is the method:
(§5) The intracellular assay using the macrophage J774A.1 cell line was performed with the compounds that presented best SI on the promastigote’s susceptibility assay. J774A.1 cells were adjusted to 2.5 × 10^5 cells/mL in supplemented DMEM medium. 200 μL/well of the cell suspension was placed in 16 well Lab Tek culture glass slides (Nunc), and incubated at 37 °C ± 1 °C, 5% CO2, for 3 h, to enable the cells to adhere to the slides. After a washing step with DMEM to discard non-attached cells, the cells were infected with 2.5 × 10^6 cells/mL promastigotes in a 10:1 parasite-host cell proportion for 24 h. Compounds and control drugs were added in two replicates of six serial concentrations (Table 3). As negative control, macrophages were cultivated in medium and DMSO, as vehicle solution (0.5% v/v). Slides were incubated for 48 h at the same temperature. After a washing step with 1× PBS (Sigma), slides were fixed and stained, and the infection index was calculated according to [34] by counting the number of intracellular amastigotes per 100 macrophages, in treated and untreated cells. Two independent experiments were performed to determine the amastigotes IC50 of each compound, which was calculated by fitting the data as a non-linear regression with variable slope using a dose-response inhibitory model, in the GraphPad Prism V 8.0 program. SI was determined as described above.

In data set [6] the test system is L. infantum IMT151 intracellular amastigotes. Description: Intracellular amastigotes assay in J774A.1 macrophages, L. infantum. The settings on record: Leishmania infantum, read-out: IC50 ± SD, L. infantum intracellular amastigotes. Type of data set: cell-based. Here is the method: as §5
Data set [7] has as its system L. infantum promastigotes. Description: Promastigotes DNA fragmentation (agarose gel). Type of data set: cell-based, Leishmania infantum. To be noted: IC50 concentrations, 24 h. The procedure: 2 mM H2O2 was used as DNA damage inductor and non-treated cells were used as control. After centrifugation (10 min, 800× g) DNA was extracted using a commercial extraction kit (High Template DNA Preparation Kit, Roche, Germany), according to the manufacturer’s instructions.

[8] abbreviates: 48 h incubation, MTT, read-out: CC50 ± SD, THP-1 Cell Line.
The mark [9] stands for this setting: 48 h incubation, MTT, read-out: CC50 ± SD, J774A.1 Cell Line.
Setting [10] is: PMA-differentiated THP-1 cells, 48 h incubation, MTT, read-out: CC50 ± SD, THP-1 Cell Line.
Setting [11] is: J774A.1 macrophage cells, 48 h incubation, MTT, read-out: CC50 ± SD, J774A.1 Cell Line.
[12] abbreviates: J774.A1, 48 h incubation, J774A.1 host cells.

The structures appear in SMILES notation. Like-named read-outs stand apart in the source and are kept apart here.

Regarding `C1CCC2(CC1)OOC1(OO2)C2CC3CC(C2)CC1C3` [LC137], the CC50 at 48 h was 3569 ± 22 µM in data set [1] (setting [8]) and 443 ± 44 µM in data set [2] (setting [9]). The IC50 was found to be 137.1 ± 0.2 µM in data set [3] (48 h); 143 ± 16.5 µM in data set [4] (48 h); 88.3 ± 14.2 µM in data set [5] (J774.A1, 48 h); 168 ± 8.9 µM in data set [6] (J774.A1, 48 h).

With `Cn1nnc(NCC2CCC3(CC2)OOC2(O3)C3CC4CC(C3)CC2C4)n1` (stereo not drawn) [LC131], the results for the CC50 at 48 h in data set [1] (setting [10]) and in data set [2] (setting [11]) were 78.2 ± 14.1 µM and 34.1 ± 14.5 µM, respectively. In addition, the half-inhibitory concentration (IC50) in data set [3] (48 h incubation, MTT) was found to be 321 ± 11.8 µM; in data set [4] (48 h incubation, MTT), 124 ± 19 µM.

For `OCC1CCC2(CC1)OOC1(O2)C2CC3CC(C2)CC1C3` (stereo not drawn) [LC93], the figures for the CC50 at 48 h in data set [1] (setting [10]) and in data set [2] (setting [11]) were 185 ± 16.1 µM and 12 ± 0.5 µM, respectively. The IC50 in data set [3] (48 h incubation, MTT) amounted to 435 ± 22.7 µM; in data set [4] (48 h incubation, MTT) it was 153 ± 22.4 µM.

For the compound `c1ccc(-n2nnnc2OCC2CCC3(CC2)OOC2(O3)C3CC4CC(C3)CC2C4)cc1` (stereo not drawn) [LC132], the “genomic DNA fragmentation” value in data set [7] was “did not produce DNA fragmentation”. The 50% cytotoxic concentration (CC50) at 48 h in data set [1] (setting [10]) stood at 99.8 ± 16.4 µM; in data set [2] (setting [11]), 45.8 ± 19.9 µM. Further, the IC50 turned out to be 13 ± 1.7 µM in data set [3] (48 h incubation, MTT); 14.3 ± 5.5 µM in data set [4] (48 h incubation, MTT); 9.4 ± 0.1 µM in data set [5] (setting [12]); 13.2 ± 5.2 µM in data set [6] (setting [12]).

Turning to `O=S1(=O)N=C(OCC2CCC3(CC2)OOC2(O3)C3CC4CC(C3)CC2C4)c2ccccc21` (stereo not drawn) [LC129], the CC50 at 48 h came to 356 ± 31.4 µM in data set [1] (setting [10]) and 323 ± 24.5 µM in data set [2] (setting [11]). Also, the concentration for half-maximal inhibition (IC50) in data set [3] (48 h incubation, MTT) amounted to 266 ± 13.3 µM.

As to `CCCCCCCCCCCCCCCCOP(=O)([O-])OCC[N+](C)(C)C` [Miltefosine, reference compound], the results for the CC50 at 48 h in data set [1] and in data set [2] were 100 ± 12.1 µM and 94.4 ± 17.3 µM, respectively. For the same compound, the IC50 is 149 ± 3.5 µM in data set [3] (48 h incubation, MTT); 24.2 ± 10 µM in data set [4] (48 h incubation, MTT); 13.3 ± 3 µM in data set [5] (setting [12]); 16.8 ± 11.7 µM in data set [6] (setting [12]).

Consider `O=C1CCC2(CC1)OOC1(O2)C2CC3CC(C2)CC1C3` (stereo not drawn) [LC50, Dispiro[cyclohexane-1,3'-[1,2,4]trioxolane-5',2''-tricyclo[3.3.1.13,7]decan]-4-one], for which the CC50 at 48 h in data set [1] (setting [8]) is 713 ± 18.4 µM; in data set [2] (setting [9]), 519 ± 140 µM. The IC50 in data set [3] (48 h) worked out at 378.9 ± 2.8 µM; in data set [4] (48 h), 354 ± 8.4 µM.

Take `C1C2CC3CC1CC(C2)C31OOC2(CCC(Nc3nnn[nH]3)CC2)OO1` (stereo not drawn) [LC163]: the CC50 at 48 h turned out to be 753 ± 90.3 µM in data set [1] (setting [10]) and 474 ± 83.5 µM in data set [2] (setting [11]). The IC50 in data set [3] (48 h incubation, MTT) was 190 ± 21.6 µM; in data set [4] (48 h incubation, MTT) it was 532 ± 105 µM.

Take `OCC1CCC2(CC1)OOC1(OO2)C2CC3CC(C2)CC1C3` (stereo not drawn) [LC146]: the CC50 at 48 h was found to be 3220 ± 72 µM in data set [1] (setting [10]) and 1465 ± 13 µM in data set [2] (setting [11]). Further, the IC50 in data set [3] (48 h incubation, MTT) was determined as 492 ± 22.7 µM; in data set [4] (48 h incubation, MTT) it was 793 ± 37.2 µM.

On to `O=C1CCC2(CC1)OOC1(OO2)C2CC3CC(C2)CC1C3` [LC140], for which the cytotoxic concentration (CC50) at 48 h in data set [1] (setting [10]) was 1400 ± 76 µM; in data set [2] (setting [11]), 678 ± 29.9 µM. Further, the half-inhibitory concentration (IC50) turned out to be 258 ± 6.4 µM in data set [3] (48 h incubation, MTT) and 460 ± 38.3 µM in data set [4] (48 h incubation, MTT).

As for `C1C2CC3CC1CC(C2)C31OOC2(CCC(Nc3nnn[nH]3)CC2)O1` (stereo not drawn) [LC136, N-1H-1,2,3,4-Tetraazol-5-yl-dispiro[cyclohexane-1,3'-[1,2,4]trioxolane-5',2''-tricyclo[3.3.1.13,7]decan]-4-ylamine], the CC50 at 48 h in data set [1] (setting [10]) stood at 250 ± 4.1 µM; in data set [2] (setting [11]) it was 113 ± 13.8 µM. Also, the IC50 was determined as 434 ± 6.4 µM in data set [3] (48 h incubation, MTT) and 232 ± 28.4 µM in data set [4] (48 h incubation, MTT).

As to `C1CC2(CCN1)OOC1(OO2)C2CC3CC(C2)CC1C3` [LC139], the CC50 at 48 h in data set [1] (setting [8]) worked out at 115 ± 11.4 µM; in data set [2] (setting [9]), 913 ± 70.7 µM. Moreover, the IC50 turned out to be 472 ± 39.2 µM in data set [3] (48 h) and 507 ± 53.3 µM in data set [4] (48 h).

What is called CC50 is the concentration that lowers cell viability or growth by half. By IC50 is commonly meant the midpoint of a concentration-inhibition curve.
